# Experimental data: patent US12262990B2, “Methods and materials for prolonged sweat stimulation” (priority 2016, dated 2025)
# Key:
# [1] = target: acetylcholinesterase (AChE) (Homo sapiens, UniProt P22303); conditions: in words; cited from earlier work
# skin of Persons A and B [2] = test: Example 1: iontophoretic sweat stimulation on two persons, followed by skin impedance; type: in vivo, human; conditions: for duration of sweat stimulation from a single dose: about 40 mC/cm^2, estimated 0.142 mg, skin impedance
# Experimental: (§1) Sweat was stimulated on two persons (A and B) using for each person a current of 0.5 mA and a charge of 75 mC applied over a total stimulated area of 1.9 cm^2 for a time of 150 seconds. Thus, the total charge density was 75 mC/1.9 cm^2 or about 40 mC/cm^2, and the estimated dose of carbachol delivered to the skin was 0.142 mg. The charge density and stimulant dose estimates may vary based on other ionic impurities that are also dosed (e.g., sodium dosed could decrease the amount of carbachol dosed). The effect of the dosed ionic impurities can be estimated or quantified in any given case by analytical chemistry techniques. […] The stimulated area was divided among two circular test sites that were approximately 1 inch apart. Skin impedance was measured using a Gamry Potentiostat using 2 kHz and 1 V peak to peak sinewave. The electrical resistance results are plotted in FIGS. 2A-2D and 3A-3D for Persons A and B, respectively (the data has been separated into four charts for each person for the sake of clarity). The baseline plots were measured at a control site (i.e., non-stimulated skin) positioned within 1 inch of the stimulation site.
# Muscarinic receptor = conditions: class symbols, key not given; cited from earlier work
# skin of Persons A and B [3] = test: Example 1: sweat rates by visual and gravimetric (filter paper) testing; type: in vivo, human; conditions: for Sweat Generation Rate: single dose about 40 mC/cm^2
# Experimental: as §1
# Sweat rates in nL/min/gland were also quantified using visual testing and gravimetric testing. Results from Person B are shown in FIG. 4 for a skin site of about 1 cm^2 of skin at 25 hours after stimulation. Approximately 130 active glands were counted per cm^2. Filter papers were weighed, placed on stimulated and control sites for 10 minutes under a plastic wrap to prevent evaporation, and immediately weighed again, and then sweat generation rates were calculated. […] The data for the stimulated sites 1 and 2 (paper measurements taken from each of the two stimulation areas) is shown in Table 2.
# skin of 8 subjects = test: Example 2: iontophoretic sweat stimulation on 8 subjects, gravimetric sweat rate; type: in vivo, human
# Description: On 8 subjects, sweat was stimulated utilizing carbachol four times as detailed in Table 4 and one additional time utilizing pilocarpine. The stimulated area was divided among two circular test sites with areas of 0.88 cm^2 that were approximately 1 inch apart, which provides a total stimulation area of 1.76 cm^2. The carbachol doses in Table 4 are shown as percentages of the applied charge density compared to the charge density of pilocarpine applied by the commercial Wescor Nanoduct product, which is a charge density of 42 mC/cm^2. The pilocarpine was dosed over 150 seconds using a current of 0.28 mA/cm^2 and a charge density of 42 mC/cm^2, which delivered approximately 90.65 μg/cm^2.
# Sweat rate was determined by a gravimetric test. Filter papers were weighed, placed on stimulated and control sites for 10 minutes under a specially designed acrylic holder that prevented any wicking of sweat from neighboring areas and prevented evaporation. The papers were immediately weighed again, and then sweat generation rates were calculated. The results from the gravimetric testing are plotted in FIGS. 4-6. Additionally, three subjects received three consecutive doses of 12.5% carbachol once the sweat rate had fallen below 1 nL/min/gland. The results from the repeated stimulation testing of subjects 1-3 are plotted in FIGS. 7A-7C, respectively.
# Nicotinic receptor = conditions: class symbols, key not given; cited from earlier work
# skin = conditions: cited from earlier work
# acetylcholinesterase (AChE), sequence (P22303 32-614, species assumed): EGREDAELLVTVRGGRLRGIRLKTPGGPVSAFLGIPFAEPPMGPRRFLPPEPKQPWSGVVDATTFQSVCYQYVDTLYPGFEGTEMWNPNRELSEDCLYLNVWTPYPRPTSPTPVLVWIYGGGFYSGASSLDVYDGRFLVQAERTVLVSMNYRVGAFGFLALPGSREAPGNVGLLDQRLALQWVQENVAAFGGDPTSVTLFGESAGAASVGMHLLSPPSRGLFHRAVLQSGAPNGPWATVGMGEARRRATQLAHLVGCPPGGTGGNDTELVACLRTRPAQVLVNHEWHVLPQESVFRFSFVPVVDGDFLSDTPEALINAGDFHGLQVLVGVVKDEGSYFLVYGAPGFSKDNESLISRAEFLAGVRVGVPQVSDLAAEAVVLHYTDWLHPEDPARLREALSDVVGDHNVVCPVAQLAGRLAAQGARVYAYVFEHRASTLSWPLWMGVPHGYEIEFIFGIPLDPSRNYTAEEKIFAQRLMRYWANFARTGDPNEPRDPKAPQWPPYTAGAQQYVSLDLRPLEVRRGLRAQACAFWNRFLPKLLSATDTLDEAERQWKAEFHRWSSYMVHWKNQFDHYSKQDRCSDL
compound,measurement,setting,value
CC(=O)OCC[N+](C)(C)C [Acetylcholine],metabolism by acetylcholinesterase (AChE),[1],rapidly metabolized
C[N+](C)(C)CCOC(N)=O [Carbachol],duration of sweat stimulation from a single dose,skin of Persons A and B [2]; Person A,at least 31 hours
same,duration of sweat stimulation from a single dose,skin of Persons A and B [2]; both Persons A and B,at least 24 hours
same,duration of sweat generation,skin of Persons A and B [2]; lower charge densities than about 40 mC/cm^2,24 h
same,Receptor Activity Muscarinic,Muscarinic receptor,strong
same,metabolism by acetylcholinesterase (AChE),[1],metabolized much more slowly
same,sweat rate,"skin of Persons A and B [3]; 40 mC/cm^2 charge density, for 24 hours",greater than 1 nL/min/gland
same,active glands counted,"skin of Persons A and B [3]; Person B, skin site of about 1 cm^2, 25 hours after stimulation",Approximately 130 per cm^2
same,Sweat Generation Rate,"skin of Persons A and B [3]; Subject A, Site 1, 4 hours after stimulation",6.4 nl/min/gland
same,Sweat Generation Rate,"skin of Persons A and B [3]; Subject A, Site 1, 23 hours after stimulation",3.3 nl/min/gland
same,Sweat Generation Rate,"skin of Persons A and B [3]; Subject A, Site 2, 4 hours after stimulation",4.6 nl/min/gland
same,Sweat Generation Rate,"skin of Persons A and B [3]; Subject A, Site 2, 23 hours after stimulation",3.1 nl/min/gland
same,Sweat Generation Rate,"skin of Persons A and B [3]; Subject B, Site 1, 5 hours after stimulation",8.3 nl/min/gland
same,Sweat Generation Rate,"skin of Persons A and B [3]; Subject B, Site 1, 23 hours after stimulation",0.3 nl/min/gland
same,Sweat Generation Rate,"skin of Persons A and B [3]; Subject B, Site 2, 5 hours after stimulation",9.4 nl/min/gland
same,Sweat Generation Rate,"skin of Persons A and B [3]; Subject B, Site 2, 23 hours after stimulation",2.7 nl/min/gland
same,stimulated sweat amount,skin of Persons A and B [3]; charge density of less than 40 mC/cm^2,"greater than 1,400 nL/gland/dose"
same,average sweat rates observed,"skin of Persons A and B [3]; for 24 hours, half the dose",greater than 2 nL/min/gland
same,duration of stimulated sweating response of greater than 0.1 nL/min/gland,"skin of 8 subjects; 5 out of 8 subjects, single 12.5% dose (5.25 mC/cm^2)",greater than 8 hours
same,"sustained sweating following a single iontophoretic dose, compared with pilocarpine","skin of 8 subjects; 8 subjects, in words",much longer than commonly observed for pilocarpine
same,duration of sweating responses,skin of 8 subjects; four of the 8 subjects,greater than 24 hours
same,duration of sweating at greater than 1 nL/min/gland,"skin of 8 subjects; half of the subjects, single 100% dose (42 mC/cm^2)",greater than 24 hours
same,duration of sweating at greater than 1 nL/min/gland,"skin of 8 subjects; subjects e, g, h, 100% dosage (42 mC/cm^2)",greater than 7 hours
same,duration of sweating responses,skin of 8 subjects; three of the 8 subjects,greater than 48 hours
same,Receptor Activity Nicotinic,Nicotinic receptor,strong
CC(=O)OC(C)C[N+](C)(C)C (stereo not shown) [Methacholine],metabolism by acetylcholinesterase (AChE),[1],metabolized much more slowly
CC[C@@H]1C(=O)OC[C@@H]1Cc1cncn1C [Pilocarpine],average sweat rate,"skin; charge density of 40 mC/cm^2, for 90 minutes",1-4 nL/min/gland
same,duration of sweat response,"skin; charge density of 40 mC/cm^2, on average",90 min
